In US6184254A, “Methods of identifying modulators of perivascular sensory nerve Ca2+ receptors” (priority 1998, dated 2001):
Entries after “also recorded” stand apart in the source; their conditions may differ. One block for each compound: values may come before it.

Experiments:
[1] = system: mesenteric resistance arteries; experiment: Ca2+-induced relaxation of isolated mesenteric resistance arteries (wire myograph); design: species or system rat
Text: (§1) Branch I and II mesenteric resistance arteries, internal diameter […], are isolated from the mesenteric arcade of male Wistar rats and placed in ice cold physiologic salt solution (PSS) of the following composition in mM: NaCl, 130-140; KCl, 4.7; MgSO4.7H2 O, 1.17; NaHCO3, 5-15; KH2 PO4, 1.15 and Na2 HPO4, 1.10, CaCl2, 1.0; HEPES, 50; and glucose, 5, with a pH of 7.4 when gassed with 95% air, 5% CO2.
After cleaning of fat and connective tissue, the arterial segments are denuded of endothelium by rubbing a human hair in and out of the lumen. The vessel segments are then mounted between a force transducer and translation stage of a wire myograph using tungsten wire and the PSS is warmed to 37° C. and gassed with 95% air, 5% CO2 to provide a pH of 7.4. The vessel segments are then stretched to a length which is equivalent to an internal diameter of […] and allowed to equilibrate for 30 minutes. […]
Mesenteric resistance artery segments are isolated from sham treated and denervated rats and prepared for measurement of isometric force generation using the wire myograph system. […] For each vessel, the maximal level of relaxation is recorded and used for comparisons. At the end of the protocol, the ability of the vessel to relax in response to addition of sodium nitroprusside (SNP) is assessed to determine the ability to relax in response to a non-neural stimulus. […]

[2] = system: renal artery segment pre-contracted with norepinephrine; experiment: Superfusion bioassay with renal artery segment; design: species or system rat
Text: The renal artery used as the bioassay segment was isolated and mounted between a fixed support and a force transducer and the lack of response to addition of Ca^2+ was verified (FIG. 9A). The bioassay segment was then superfused with PSS that was allowed to drip across a mesenteric arcade attached to PE-10 tubing; the cut ends of the arcade were tied with suture material to prevent egress of endothelium-derived factors. […] To further examine the possibility that a diffusible substance was released from the mesenteric arcade in response to 5 mM Ca^2+, the superfusate was collected and stored on ice for approximately 45 minutes. The bioassay segment was then returned to the organ chamber, recontracted with norepinephrine and the response to Ca^2+ and to the collected superfusate were assessed.

[3] = system: mesenteric resistance arteries; experiment: Isometric force/active stress of Ca2+-depleted mesenteric resistance arteries; design: species or system Wistar rat
Protocol: In the course of studies designed to examine the hypothesis that the Ca^2+ force relationship of resistance arteries is altered in genetically hypertensive rats, it was discovered that physiologic concentrations of extracellular Ca^2+ affected the repeated contraction elicited by norepinephrine in Ca^2+ -free medium.
(§2) Mesenteric resistance arteries were isolated from Wistar rats; and intracellular Ca^2+ and isometric force were measured using a fura-based method and w ire myography (Bian, et aL, 1995b). Vessels were depleted of releasable Ca^2+ by repeated contraction with norepinephrine; and extracellular Ca^2+ was then cumulatively added back from 0.025-2.5 mmol/L in the presence of a n agonist. […] It was concluded that extracellular Ca^2+ limits force generation by depressing myofilament Ca^2+ sensitivity and decreasing intracellular Ca^2+ secondary to activation of a Ca^2+ -sensitive K^+ channel.

[4] = system: intracellular Ca^2+ of mesenteric resistance arteries; experiment: Intracellular Ca2+ (fura-based) of mesenteric resistance arteries; design: species or system Wistar rat; settings: 1.6 and 2.5 mmol/L Ca2+
Protocol: as §2

[5] = system: mesenteric resistance arteries of SHR and WKY; experiment: Response to norepinephrine of SHR and WKY mesenteric resistance arteries at different extracellular Ca2+; design: species or system rat (SHR and WKY); settings: 1.5 and 2.5 vs 1.25 mmol/L Ca2+, both strains
Protocol: In an initial series of experiments the isometric force response of mesenteric resistance arteries of SHR and WKY was assessed to cumulative addition of norepinephrine in the presence of 1.25, 1.5 and 2.5 mmol/L extracellular Ca^2+ (Li, J., et al., 1993).

[6] = system: mesenteric resistance arteries; settings: cited from earlier work
[7] = system: blood pressure; settings: SHR; cited from earlier work
[8] = system: blood pressure; settings: cited from earlier work
[9] = system: rat tail arteries; settings: cited from earlier work
[10] = system: rat aorta; settings: cited from earlier work
[11] = system: cremaster arterioles; settings: Ca2+ 0 to 5.1 mM; cited from earlier work
[12] = system: mammalian arteries; settings: slightly supraphysiologic concentrations; cited from earlier work
[13] = system: aorta; settings: high extracellular Ca2+; cited from earlier work
[14] = system: CaR; settings: cited from earlier work
[15] = system: norepinephrine precontracted mesenteric resistance arteries (perivascular CaR); experiment: Vasorelaxation of norepinephrine precontracted mesenteric resistance arteries; design: species or system rat
Text: as §1
After cleaning of fat and connective tissue, the arterial segments are denuded of endothelium by rubbing a human hair in and out of the lumen. The vessel segments are then mounted between a force transducer and translation stage of a wire myograph using tungsten wire and the PSS is warmed to 37° C. and gassed with 95% air, 5% CO2 to provide a pH of 7.4. The vessel segments are then stretched to a length which is equivalent to an internal diameter of […] and allowed to equilibrate for 30 minutes. The vessels are then exposed to […] norepinephrine for three 5 minute periods to induce reproducible contractile responses. […] The vessel is then washed and allow to relax to baseline.
To determine whether the test compound is a vasodilator, the vessel is again precontracted by the addition of […] norepinephrine, and after the force response reaches a steady state, the test compound is cumulatively added and the effect on force generation is determined. […] Ca^2+ receptor agonists that are found to be endothelium-independent vasodilators and whose dilator activity is blocked by quinacrine and sensory denervation are moved onto the tertiary in vivo blood pressure screen.
(§3) Mesenteric resistance arteries were precontracted with either 100 mM K^+ (in the presence of 1 μM phentolamine) or 5 μM norepinephrine and response to cumulative addition of NPS R831 (10 nM to 50 μM) determined.

[16] = system: mean arterial pressure; experiment: Mean arterial pressure of conscious SHR and WKY rats after bolus administration; format: in vivo, rat (SHR and WKY)
Text: FIG. 12. Effect of bolus administration of 3 μmol/kg NPS R467 on mean arterial pressure (carotid artery catheter) of conscious SHR rats.
FIG. 13. Effect of bolus administration of 1 μmol/kg NPS R831 on mean arterial pressure (carotid artery catheter) of conscious SHR and WKY.
The initial studies assessed the effect of bolus administration of NPS R467 on mean arterial pressure of conscious rats of both strains.
As noted, one result of the studies in Example 1 was the identification of NPS R831 as a candidate compound for assessment of blood pressure lowering effects. A study was performed in which the effect of a bolus injection of NPS R831 on blood pressure of a single SHR and a single WKY rat were measured.

[17] = system: voltage sensitive Ca^2+ channel; settings: "in view of statements"; cited from earlier work
[18] = biological target: T1, Ca^2+ channels (Rattus norvegicus, UniProt P22002); experiment: Relaxation of mesenteric arteries precontracted with 100 mM K+ (Ca2+ channel blocking activity)
T1 construct: voltage sensitive Ca^2+ channels present on smooth muscle; from tissue; host or cells: isolated mesenteric resistance arteries (rat)
T1 sequence (P22002 whole entry): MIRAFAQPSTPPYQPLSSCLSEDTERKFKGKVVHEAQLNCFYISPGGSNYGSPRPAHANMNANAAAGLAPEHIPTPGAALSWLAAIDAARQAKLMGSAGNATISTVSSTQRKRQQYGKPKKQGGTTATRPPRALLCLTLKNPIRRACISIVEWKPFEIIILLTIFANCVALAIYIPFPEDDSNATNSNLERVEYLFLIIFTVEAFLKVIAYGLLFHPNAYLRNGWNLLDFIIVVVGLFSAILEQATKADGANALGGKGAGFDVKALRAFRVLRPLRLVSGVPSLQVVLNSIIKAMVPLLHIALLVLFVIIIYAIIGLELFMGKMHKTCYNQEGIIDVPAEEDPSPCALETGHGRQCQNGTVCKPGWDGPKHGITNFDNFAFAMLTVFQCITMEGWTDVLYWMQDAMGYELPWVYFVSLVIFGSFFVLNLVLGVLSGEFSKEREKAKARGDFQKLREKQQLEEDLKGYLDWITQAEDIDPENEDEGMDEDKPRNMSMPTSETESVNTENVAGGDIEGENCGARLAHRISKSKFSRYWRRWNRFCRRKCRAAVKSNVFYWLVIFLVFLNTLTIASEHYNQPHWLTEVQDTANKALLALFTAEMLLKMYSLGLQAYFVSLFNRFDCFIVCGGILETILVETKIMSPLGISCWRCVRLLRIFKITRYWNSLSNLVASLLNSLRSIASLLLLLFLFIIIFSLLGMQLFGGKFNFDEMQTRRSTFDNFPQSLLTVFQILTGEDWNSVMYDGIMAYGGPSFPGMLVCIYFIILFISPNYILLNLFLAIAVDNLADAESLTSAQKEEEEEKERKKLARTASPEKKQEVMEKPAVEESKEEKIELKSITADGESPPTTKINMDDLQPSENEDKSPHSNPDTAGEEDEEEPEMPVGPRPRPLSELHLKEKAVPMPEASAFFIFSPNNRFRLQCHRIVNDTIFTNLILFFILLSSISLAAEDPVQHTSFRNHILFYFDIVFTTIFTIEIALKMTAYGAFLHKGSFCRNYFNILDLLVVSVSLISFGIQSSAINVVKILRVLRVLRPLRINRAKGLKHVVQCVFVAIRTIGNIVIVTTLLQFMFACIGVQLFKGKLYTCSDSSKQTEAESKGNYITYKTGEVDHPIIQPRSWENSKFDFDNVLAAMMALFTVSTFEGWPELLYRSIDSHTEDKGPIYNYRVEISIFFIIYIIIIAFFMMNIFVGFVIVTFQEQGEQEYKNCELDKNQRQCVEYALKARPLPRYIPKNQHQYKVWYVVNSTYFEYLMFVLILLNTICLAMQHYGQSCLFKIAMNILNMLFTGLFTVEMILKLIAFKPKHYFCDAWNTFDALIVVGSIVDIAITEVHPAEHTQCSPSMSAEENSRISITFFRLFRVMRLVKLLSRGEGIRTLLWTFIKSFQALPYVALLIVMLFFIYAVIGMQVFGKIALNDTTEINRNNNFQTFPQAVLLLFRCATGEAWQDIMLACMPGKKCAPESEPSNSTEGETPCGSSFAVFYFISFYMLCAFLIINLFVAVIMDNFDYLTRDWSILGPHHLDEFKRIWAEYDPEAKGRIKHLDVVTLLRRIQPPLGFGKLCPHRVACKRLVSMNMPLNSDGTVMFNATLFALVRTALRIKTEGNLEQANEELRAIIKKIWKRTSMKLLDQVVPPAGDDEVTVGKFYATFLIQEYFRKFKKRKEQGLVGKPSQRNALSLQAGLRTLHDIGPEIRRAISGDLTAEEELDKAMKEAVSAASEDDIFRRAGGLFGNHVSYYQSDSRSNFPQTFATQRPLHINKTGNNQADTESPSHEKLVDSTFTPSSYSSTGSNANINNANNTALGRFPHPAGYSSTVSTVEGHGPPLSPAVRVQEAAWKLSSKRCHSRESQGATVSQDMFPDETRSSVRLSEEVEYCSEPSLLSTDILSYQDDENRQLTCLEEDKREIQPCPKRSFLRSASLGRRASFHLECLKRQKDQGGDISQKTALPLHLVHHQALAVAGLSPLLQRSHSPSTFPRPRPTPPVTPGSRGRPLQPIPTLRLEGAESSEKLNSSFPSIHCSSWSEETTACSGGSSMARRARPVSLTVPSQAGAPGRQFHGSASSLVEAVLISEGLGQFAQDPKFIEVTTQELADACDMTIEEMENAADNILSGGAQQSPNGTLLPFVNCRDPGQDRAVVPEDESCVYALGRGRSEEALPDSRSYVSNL
T1 sequence (P54290 25-944 partner limits assumed): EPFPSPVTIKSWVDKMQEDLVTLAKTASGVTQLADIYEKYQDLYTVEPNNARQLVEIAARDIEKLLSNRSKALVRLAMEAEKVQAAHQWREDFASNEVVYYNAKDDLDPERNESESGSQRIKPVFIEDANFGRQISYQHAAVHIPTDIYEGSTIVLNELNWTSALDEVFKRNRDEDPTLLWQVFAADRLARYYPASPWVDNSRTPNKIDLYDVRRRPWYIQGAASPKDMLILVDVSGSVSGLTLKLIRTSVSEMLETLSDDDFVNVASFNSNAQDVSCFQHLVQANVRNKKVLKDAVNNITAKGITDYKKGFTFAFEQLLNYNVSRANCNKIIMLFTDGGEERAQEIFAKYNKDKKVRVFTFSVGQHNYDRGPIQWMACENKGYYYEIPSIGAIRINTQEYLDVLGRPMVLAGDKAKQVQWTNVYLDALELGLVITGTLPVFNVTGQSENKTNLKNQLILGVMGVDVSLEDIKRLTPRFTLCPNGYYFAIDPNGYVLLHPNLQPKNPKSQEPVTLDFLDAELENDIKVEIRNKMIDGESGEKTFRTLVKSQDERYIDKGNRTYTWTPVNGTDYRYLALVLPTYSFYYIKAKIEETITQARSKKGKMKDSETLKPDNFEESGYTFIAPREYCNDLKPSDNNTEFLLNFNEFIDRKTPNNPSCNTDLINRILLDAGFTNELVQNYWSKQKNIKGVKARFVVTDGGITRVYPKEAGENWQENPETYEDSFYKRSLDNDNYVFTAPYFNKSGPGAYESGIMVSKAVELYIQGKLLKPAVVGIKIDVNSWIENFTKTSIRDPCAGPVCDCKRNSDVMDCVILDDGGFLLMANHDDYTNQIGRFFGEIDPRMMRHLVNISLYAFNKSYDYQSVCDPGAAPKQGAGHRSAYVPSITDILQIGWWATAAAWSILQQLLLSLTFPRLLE
T1 sequence (P54290 945-1091 partner limits assumed): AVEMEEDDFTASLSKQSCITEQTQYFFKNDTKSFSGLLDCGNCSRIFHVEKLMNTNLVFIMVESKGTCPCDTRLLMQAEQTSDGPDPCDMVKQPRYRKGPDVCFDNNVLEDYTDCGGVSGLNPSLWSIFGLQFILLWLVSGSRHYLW
Text: Prior studies have shown that the parathyroid CaR agonists of the NPS R467 class block voltage sensitive Ca^2+ channel at mid-micromolar concentrations. […] The rationale was based on the facts that (a) K^+ -induced contraction is the result of influx of Ca^2+ into the cell through voltage gated Ca^2+ channels, and (b) Ca^2+ -induced relaxation is not observed during K^+ depolarization. Thus, CaR agonist mediated relaxation observed during K^+ induced contraction would reflect Ca^2+ channel blocking activity while […] relaxation observed during norepinephrine-induced contraction (which results from both Ca^2+ release and Ca^2+ entry) would be a mixture of Ca^2+ receptor stimulated relaxation and Ca^2+ channel activity.
as §3, with “determined. […] To determine that the high sensitivity component observed during norepinephrine-induced contraction is mediated by the perivascular CaR two additional studies are conducted.” for “determined.”

[19] = system: Ca^2+-induced relaxation of mesenteric resistance arteries; experiment: Inhibition of Ca2+-induced relaxation of mesenteric resistance arteries by antagonists or denervation; design: species or system rat; settings: prior results, K / KCa channel blockade
[20] = bolus injection, single SHR and single WKY

Compound: [Ca+2] [Ca^2+]
relationship of 3 mM Ca2+-induced relaxation with CaR content ([1]; 5 μM norepinephrine): positively correlated
relaxation response of precontracted artery to Ca2+ ([1]; 1.5, 2, 3, 5, 7.5 and 10 mmol/L): biphasic relaxation response
effect on renal artery bioassay segment when superfused over the donor segment ([2]; 5 mM Ca2+): caused relaxation
direct effect on bioassay (renal artery) vessel ([2]; 5 mM Ca2+ added directly): without effect; also recorded: absence of response
direct effect on renal artery vessel after recontraction ([2]; Ca2+ 1.5-5.0 mM): no effect
effect on force ([3]; Ca2+ between 0.01 and 0.8 mmol/L): increase in force
steady state force and Ca2+ in ([3]; Ca2+ from 0.8 to 1.6, FIG. 2): decreased steady state force but not steady state Ca^2+in
effect on active stress ([3]; norepinephrine, serotonin and PGF2α contraction, not K+, 0.8 to 1.6 and 1.6 to 2.5 mmol/L): decreased active stress
effect on force ([3]; raising Ca2+ from 0.8 to 1.6 or 1.6 to 2.5 mmol/L): caused relaxation; also recorded: decrease in force and Ca^2+
steady state intracellular Ca2+ [4]: only decreased significantly in response to 2.5 mmol/L extracellular Ca^2+
response to low dose norepinephrine [5]: significantly depressed
EC50 ([6]; cumulatively raising extracellular Ca2+ above 1.5 mM, n=12, read-out: ED50 value of Ca2+-induced relaxation): 2400 ± 170 µM
extent of relaxation ([6]; raising extracellular Ca2+ above 1.5 mM): nearly complete relaxation
effect on isolated arteries ([6]; raising extracellular Ca2+ from 1.0 mM to 1.5 mM): relaxes isolated arteries
effect of elevated dietary calcium intake on blood pressure [7]: lowers blood pressure
blood pressure lowering effect of Ca2+ supplementation ([8]; clinical trials, overall): small overall blood pressure lowering effect
blood pressure response to Ca2+ supplementation in sub-groups ([8]; sub-groups): significant fall in blood pressure
effect on rat tail arteries ([9]; raising Ca2+ from 4.1 to 20.1 mmol/L): relaxes rat tail arteries
effect of extracellular Ca2+ on K+-induced contraction [10]: depressed
effect on cremaster arterioles [11]: graded contraction
effect on force generation [12]: depress force generation
effect on early force response of the aorta to epinephrine [13]: suppress the early force response
effect on later steady state response of the aorta [13]: enhanced

Compound: [Gd+3] [Gd^3+]
activation of CaR [14]: activated

Compound: [La+3] [La^3+]
activation of CaR [14]: activated

Compound: COc1cccc([C@@H](C)NCCCc2ccccc2)c1 [NPS R467]
effect of TEA on relaxation induced by low range of the drug ([15]; 10 mM TEA, 10's of nM drug): completely antagonized
effect of TEA on relaxation induced by higher concentration of the drug ([15]; TEA, higher concentration): not blocked by TEA
concentration causing a larger relaxation ([15]; biphasic relaxation, high range): 3 to 10 µM
concentration inducing relaxation of similar extent to the Ca2+ relaxation ([15]; biphasic relaxation, low range): 50 to 300 nM
concentration activating the perivascular Ca2+ receptor and inducing relaxation ([15]; interpretation consistent with data): 30 to 300 nM
time for development of blood pressure lowering effect ([16]; bolus, both strains): 30 to 40 min
blood pressure lowering effect ([16]; bolus, conscious rats, both strains): modest and slowly developing
concentration of non-selective channel effects [17]: ≥ 4 µM

concentration of Ca2+ channel blocking mechanism of action ([18]; K+ vs norepinephrine contraction): mid-μM concentrations
IC50 ([18]; mesenteric arteries precontracted with 100 mM K+, read-out: IC50 for block of Ca2+ channels): ~1.5 µM
Compound: COc1cccc([C@@H](C)NCCCc2ccccc2OC)c1 [NPS R831]
potency in relaxing precontracted arteries vs activating the parathyroid CaR ([15]; compared with parathyroid CaR system): relaxes precontracted arteries with the same potency as it activates the parathyroid CaR system
concentration of possibly perivascular CaR mediated component ([15]; norepinephrine-induced contraction): sub-micromolar concentrations
shift of relaxation response during K+- vs norepinephrine-induced contraction ([18]; 100 mM K+ (1 μM phentolamine) vs 5 μM norepinephrine, NPS R831 10 nM to 50 μM): significantly shifted to the right (less sensitive)
blood pressure lowering effect [16, 20]: moderately rapid (within 5 min) blood pressure lowering effect in both strains
onset of blood pressure lowering effect [16, 20]: ≤ 5 min

Compound: C[C@@H]1O[C@@H](O[C@H]2C[C@@H](O)[C@]3(CO)[C@H]4[C@H](O)C[C@]5(C)[C@@H](C6=CC(=O)OC6)CC[C@]5(O)[C@@H]4CC[C@]3(O)C2)[C@H](O)[C@H](O)[C@H]1O [ouabain]
effect of pre-treatment on Ca2+-induced relaxation of rat tail arteries [9]: antagonized

Compound: NCCCNCCCCNCCCN [spermine]
activation of CaR [14]: activated

Compound: charybdotoxin
effect on Ca2+-induced relaxation [19]: antagonized
effect on decrease in active stress induced by 1.6 and 2.5 mmol/L extracellular Ca2+ [3]: inhibited

Compound: neomycin
activation of CaR [14]: activated
